Each block holds one compound with its values, some of them ahead of it.
Tests used:
3T3-L1 adipocytes = assay: Uptake of 2-deoxy-D-[1-14C]glucose by 3T3-L1 adipocytes; format: cell-based
Method: The effect of vanadyl compounds on uptake of 2-deoxy-D-[1-^14C]glucose by 3T3-L1 adipocytes was measured using methods described in Makinen, M. W., et al., “Structural Origins of the Insulin-Mimetic Activity of Bis(acetylacetonato)oxovanadium(IV),” J. Biol. Chem. 277 (2002) pp. 12215-12220, which is incorporated herein by reference. Serum-starved, differentiated […] adipocytes were used in the metabolic assays. Cells were washed twice with phosphate-buffered isotonic saline at 37° C. and serum-starved for 2.5 hours in Krebs-Ringer buffer lacking bovine serum albumin or serum. The medium was removed, and cells were incubated for 30 minutes in buffer with different concentrations of VO^2+-based contrast agents with or without serum albumin (1 mM) prior to measuring glucose uptake rates. Glucose transport rates were measured by the addition of 20 μM 2-deoxy-D-[1-^14C] glucose.

p-AKT = assay: Cell signaling study, Western blot of p-AKT in Caco-2 and HCA-7 cells; format: cell-based, human; conditions: 5 min; for level of p-AKT compared to controls: Caco-2 and HCA-7 cells
Method: (§1) HCA-7 and Caco-2 cells derived from human colonic adenocarcinomas obtained from the American Type Culture Collection, Manassas, Va. were cultured at 37° C. in a humidified atmosphere of 5% CO2-95% air in 6-well plates (250,000 cells/well/2 mL in 5% serum medium). When cells were ˜70-80% confluent, cells were transferred to serum-free media and kept overnight. A vanadyl compound was added to a well to a final concentration of 100, 250, or 500 μM and incubated for 5 minutes. In each 6-well plate, 2 wells were set as controls and 4 wells were set for one desired concentration of a vanadyl compounds. Cells were then homogenized in 2× Laemmli sodium dodecyl sulfate (SDS) buffer. Samples were boiled for 5 minutes at 100° C. and proteins quantified using the RC-DC protein assay (Bio-Rad). Western blotting was then carried out, briefly described as follows. SDS-treated samples (50 μg/lane) were separated by SDS-polyacrylamide gel electrophoresis (PAGE) on a 4-15% resolving gel. Pre-stained molecular weight markers were included in each gel. Gels were electroblotted to immobilon-P transfer membranes (Millipore Billerica, Mass.). Following blocking of non-specific antibody binding, the blots were exposed to rabbit polyclonal anti-pAKT (Cell Signaling Technology, Danvers, Mass.) or mouse monoclonal anti-pERK (Santa Cruz Biotechnology, Inc., Santa Cruz, Calif.) and developed with secondary antibody using standard methods. The blots were washed, and the p-AKT and p-ERK were detected in film and digitized for final quantification.
FIG. 3 illustrates two Western blots of p-AKT using Caco-2 (left panel) and HCA-7 cells (right panel) treated with VO(acac)2 in a concentration of 100, 250 or 500 μM (top, middle and bottom rows, respectively). Lane 1 is the control; lanes 2 and 3 are duplicates of cells exposed to VO(acac)2 a particular concentration of VO(acac)2. These blots were analyzed by […] on X-OMAT™ autoradiogram films using an enhanced chemiluminesence system.

p-ERK = assay: Cell signaling study, Western blot of p-ERK in Caco-2 and HCA-7 cells; format: cell-based, human; conditions: 100, 250 or 500 μM, 5 min
Method: as §1, with “Following blocking of non-specific antibody binding, the blots were exposed to rabbit polyclonal anti-pAKT (Cell Signaling Technology, Danvers, Mass.) or mouse monoclonal anti-pERK (Santa Cruz Biotechnology, Inc., Santa Cruz, Calif.) and developed with secondary antibody using standard methods.” left out

AT6.1 prostate tumors = assay: Vanadyl concentration in tumor and muscle tissue by atomic absorption spectroscopy; format: in vivo, nude mice; conditions: at 5 hours after about 0.15 mmol/kg i.v., mice
Method: AT6.1 prostate tumors were implanted subcutaneously in the hind limbs of nude mice. The tumors were monitored and allowed to grow to about 6-8 mm over a period of about 2 weeks. The VO^2+-based contrast agent was dissolved in dimethyl sulfoxide and the resulting solution was diluted with saline. The final concentration of DMSO was about 5% by volume. The solution was about 10 mM VO^2+-based contrast agent. VO(acac)2 was added slowly to the tail vein of each mouse using a syringe infusion pump (Harvard Apparatus, South Natick, Mass.). A total of 100 μL of solution were added in 5 minutes (flow rate=20 μL/minute) for a total dosage of about 0.15 mmol/kg. All mice were kept in a cage and monitored after injection. The mice were then sacrificed at various times. Tissue samples of the tumors and muscles were removed after a mouse was sacrificed. The tissue samples were weighed and then digested by wet digestion using H2O2 and HNO3. Atomic absorption measurements were carried out using Perkin Elmer AAnalyst 300 with an HGA 800 furnace. Control sets (n=3) were free of contrast agent. Measurements were based on standard curves of known vanadyl concentration with a correlation coefficient of 0.99820.

[1] = Toxicity study in tumor-bearing nude mice (blood parameters, i-STAT); format: in vivo; conditions: 1 mmol/kg via tail vein, monitored over three days, mice bearing AT6.1 tumor
Method: Toxicity studies were performed with tumor-bearing nude mice weighing about 25-30 grams (n=5). An AT6.1 prostate tumor was implanted subcutaneously in the hind limb of the mouse. 1 mmol/kg of VO(acac)2 was administered through a catheter placed in the tail vein. The VO(acac)2 was dissolved in dimethyl sulfoxide and the resulting solution was diluted with saline. The final concentration of DMSO was about 5% by volume. The solution was about 10 mM VO(acac)2.
The pH, pCO2, HCO3^−, TCO2, serum O2, Na^+, K^+, Ca^2+, glucose, blood urea nitrogen (BUN), Hematocrit (Hct) and hemoglobin (Hb) were monitored using an i-STAT analyzer (East Windsor, N.J.) by taking ˜30 μL blood samples over a period of three days.

AT6.1 prostate tumor = assay: In vivo MRI and contrast media dynamics in rats bearing AT6.1 tumors; set-up: species or system Copenhagen rat; conditions: rat
Method: MRI studies were performed using a 4.7 Tesla Bruker scanner with multi-slice echo-planner spectroscopic imaging (EPSI). The scanning parameters were as follows: TR/TE of 800/80 msec; field of view 40 mm; array size of 256×256; slice thickness of 0.5 mm; and, an average of 1.
First, high-resolution reference images were acquired by conventional spin echo and gradient echo pulse sequences using multiple slices. These reference images provided anatomic reference information and were used to accurately measure tumor volume. Then multi-slice (usually 3 slices) echo-planner spectroscopic imaging (EPSI) with repetition time (TR) of 800 msec and echo time (TE) of 80 msec were acquired. Acquisition of MRI data using high-resolution EPSI pulse sequence may also be used. These sequence images were acquired with spatial resolution of 200 micron in-plane in ˜500 micron slices and spectral resolution of 2 Hz. These images were acquired at the same spatial resolution as conventional images but provided increased sensitivity to contrast media effects.
A Dunning AT6.1 prostate tumor was implanted subcutaneously in the hind limb of a Copenhagen rat. The tumor was monitored and imaging began when the tumor reached a size of 5-10 mm. The VO^2+-based contrast agent was dissolved in dimethyl sulfoxide and the resulting solution was diluted with saline. The final concentration of DMSO was about 5% by volume. The solution was about 10 mM VO^2+-based contrast agent.
After 6 to 8 pre-contrast MR images were obtained as a reference, 0.15 mmol/kg of VO(acac)2 was injected through a catheter placed in the tail vein of the rat over 5 minutes. During MR imaging, the rats were anesthetized using isofluorane mixed with air and oxygen flowing through a mask. Exhaust gases were eliminated through an F-Air canister attached to the mask set up. Temperature was monitored continuously by a rectal thermometer and controlled with a warm water blanket. Heart rate, respiration rate, and blood pressure were monitored using an optical detector system from SA Instruments (Stony Brook, N.Y.). To minimize motion artifacts, rats were wrapped in co-flex and taped to a Plexiglass board. The leg was secured through the coil in a plastic tube and taped to the cradle.
Post-contrast EPSI scans were acquired for about 4 hours. Each EPSI scan took about 3.5 minutes. Images were used in which the intensity was proportional to the peak height of the water resonance in each voxel. […]
0.15 mmol/kg of VO(acac)2 was injected through a catheter placed in the tail vein of the rat over 5 minutes. […] Temperature was monitored continuously by a rectal thermometer and controlled with a warm water blanket. Heart rate, respiration rate, and blood pressure were monitored using an optical detector system from SA Instruments (Stony Brook, N.Y.). […]

[2] = T1 relaxivity of the contrast agent in buffer; format: physicochemical; conditions: 0.01 M HEPES buffer pH 7.4 with 0.15 M NaCl; 4.7 Tesla
Method: The T1 relaxation times of VO(acac)2 in 0.01 M HEPES buffer at pH 7.4 with 0.15 M NaCl were determined. With the determined T1 values at different concentrations of VO(acac)2, the relaxivity was determined using equation 1,
where T1m is the measured T1 for VO(acac)2, T1w is the T1 for water, C is the concentration of the contrast agent, and r1 is the relaxivity. The relaxivity for VO(acac)2 of 2.5±0.2 mM^−1s^−1 is slightly lower but close to that of known contrast agents of gadolinium complexes of 4.3±0.2 mM^−1s^−1 at 4.7 Tesla. This means that VO(acac)2 can produce significant, easily detectable changes in MR image intensity.

[3] = Solubility in aqueous solutions at physiological pH; format: physicochemical
Method: Bis(acetylamido)oxovanadium(IV) [VO(acac-NH2)2]. VO(acac-NH2)2 was synthesized according to the procedure described by Crans et al., “Bis(acetylamido)oxovanadium(IV) Complexes: Solid State and Solution Studies,” J. Chem. Soc. Dalton Trans. (2001) pp. 3337-3345. One equivalent of vanadyl sulfate was dissolved in water followed by the addition of 3-equivalents of acetoacetamide under constant stirring. A solution of 10% sodium bicarbonate was then added dropwise to raise the pH from 1.5 to 3.6 in order to form a suspension. A bluish precipitate was obtained after allowing the solution to stand for one day at 4° C. The precipitate was filtered off, washed with a small amount of chloroform, and dried under vacuum.
Bis(acetylacetanato-bisNH2)oxovanadium(IV) [VO(acac-(NH2)2)2]. VO(acac-(NH2)2)2 is synthesized as follows. One equivalent of vanadyl sulfate is dissolved in water followed by the addition of 3 equivalents of malonamide under constant stirring. A solution of 10% sodium bicarbonate is then added dropwise to raise the pH in order to form a suspension. A bluish precipitate is obtained after standing the solution for one day at 4° C. The precipitate is filtered off, washed with a small amount of chloroform, and dried under vacuum.

[4] = 0.15 mmol/kg i.v. over 5 minutes, AT6.1 tumor

Compound: Cc1occc(=O)c1[O-].Cc1occc(=O)c1[O-].[O]=[V+2] [VO(malto)2, Bis(maltolato)oxovanadium(IV)]
dependence of increase in glucose uptake on compound:serum albumin ratio (3T3-L1 adipocytes; data not shown): no clear dependence
enhancement of glucose uptake per equivalent of VO2+ compared with VO(acac)2 and VO(OPT)2 (3T3-L1 adipocytes; data not shown): markedly less
glucose uptake (effect in words) (3T3-L1 adipocytes; with or without 1 mM serum albumin, data not shown): facilitate glucose uptake

Compound: O=S(=O)([O-])[O-].[O]=[V+2] [VOSO4, vanadyl sulfate, reference compound]
activation of p-AKT (in words) (p-AKT; 100, 250 or 500 μM): did not induce measurable activation
activation of p-ERK (in words) (p-ERK): did not induce measurable activation

vanadyl concentration in tumor tissue (AT6.1 prostate tumors): remained relatively high
relaxivity r1 [2]: 2.5 ± 0.2 mM⁻¹ s⁻¹
Compound: Bis(acetylacetonato)oxovanadium(IV) [VO(acac)2]
level of p-AKT compared to controls (p-AKT; 100 μM): 2 fold
level of p-AKT compared to controls (p-AKT; 250 μM): 5 fold
level of p-AKT compared to controls (p-AKT; 500 μM): 12 fold
blood pH, pCO2, HCO3−, TCO2, serum O2, Na+, K+, Ca2+, glucose, BUN, Hct, Hb [1]: fell within the normal range
MR signal enhancement in tumor regions, often as high as (AT6.1 prostate tumor; [4]): ≤ 100%
MR signal enhancement in tumor regions, typical (AT6.1 prostate tumor; [4]): greater than 50%
enhancement in muscle for a long time after injection (AT6.1 prostate tumor; 0.15 mmol/kg i.v.): relatively little enhancement in muscle
T1 and T2* contrast (AT6.1 prostate tumor; 0.15 mmol/kg i.v., 4.7 Tesla): excellent T1 and T2* contrast
uptake of glucose (3T3-L1 adipocytes; in the presence of equimolar concentrations of serum albumin, 30 min incubation): maximally enhanced

solubility in aqueous solutions [3]: completely soluble
Compound: Bis(acetylamido)oxovanadium(IV) [VO(acac-NH2)2]

— US20100166662A1, “MAGNETIC RESONANCE IMAGING METHOD USING VANADYL-BASED CONTRAST AGENTS” (The University of Chicago, priority 2006, published 2010)
